Experimental data: paper PMC9925730, “Controlled sequential in situ self-assembly and disassembly of a fluorogenic cisplatin prodrug for cancer theranostics” (Nature Communications, 2023)
“And” between values parts separate entries of the source, which are not always exact repeats. Equal entries are not always repeated.

Legend:
ALP = target: T1, ALP (Bos taurus, UniProt P19111); assay: NIR FL, PA and absorption signals of P-CyPt in solution in response to ALP; assay type: biochemical; conditions: P-CyPt 10 μM; for normalized Abs. at 700 nm (Fig. 2j) / normalized Abs. at 750 nm (Fig. 2j) / normalized FL intensity at 710 nm (Fig. 2k) / normalized PA intensity at 700 nm (Fig. 2l) / normalized PA intensity at 750 nm (Fig. 2l): ALP 100 U/L 37 °C
T1 construct: Alkaline phosphatase from bovine; purchased Sigma-Aldrich; host or cells: bovine intestinal mucosa (tissue-derived)
T1 sequence (P19111 20-506 limits assumed): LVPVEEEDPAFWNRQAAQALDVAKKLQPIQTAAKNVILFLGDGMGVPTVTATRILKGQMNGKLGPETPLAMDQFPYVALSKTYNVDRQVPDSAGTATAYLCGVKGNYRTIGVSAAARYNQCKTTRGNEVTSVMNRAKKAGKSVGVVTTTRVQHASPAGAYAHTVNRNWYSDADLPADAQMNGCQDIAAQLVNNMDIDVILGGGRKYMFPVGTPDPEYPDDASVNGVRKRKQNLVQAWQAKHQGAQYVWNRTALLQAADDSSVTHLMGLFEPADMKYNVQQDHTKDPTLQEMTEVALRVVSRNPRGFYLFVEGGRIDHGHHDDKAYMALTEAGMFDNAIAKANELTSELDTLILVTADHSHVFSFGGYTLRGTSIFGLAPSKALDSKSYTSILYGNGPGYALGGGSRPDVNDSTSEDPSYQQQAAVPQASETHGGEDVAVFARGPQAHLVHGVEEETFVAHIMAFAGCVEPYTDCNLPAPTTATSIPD
Description: To monitor the NIR FL and PA imaging signals of P-CyPt in response to ALP, P-CyPt (10 μM) in Tris buffer (1 mL) was incubated with ALP (100 U/L) at 37 °C for 0, 5, 10, 15, 20, and 30 min. To monitor the NIR FL and PA imaging signals of Pt^IVNPs in response to GSH, P-CyPt (10 μM) in Tris buffer (1 mL) was first incubated with ALP (100 U/L) at 37 °C for 30 min and then incubated with 10 mM GSH at 37 °C for another 10, 20, 30, 40, 50, and 60 min. The NIR FL spectra of these solutions at each time point were acquired on a HORIBA Jobin Yvon Fluoromax-4 fluorescence spectrometer, with excitation at 680 nm. For PA imaging, the incubation solutions at each time point were loaded into a fine bore polythene tube ([…], 1.27 mm OD). The tubes were then sealed and immersed in water. The PA images at both 700 and 750 nm were acquired on the Vevo 2100 LAZR system (FUJIFILM VisualSonics).

HeLa cells = assay: NIR FL and PA bimodality imaging of cell pellets; assay type: cell-based, human; conditions: for normalized FL of cell pellets (Fig. 3c): 30 min
[1] = Blood circulation half-life (ICP-OES of Pt); assay type: in vivo, mice; conditions: for blood circulation half-life t1/2: mice, i.v., 2.25 mg kg-1 Pt
Description: Scale bar: 100 μm. The occurrence of hepatotoxicity in […]-treated mice could be presumably owing to (1) the large size of […] (~160 nm) that caused a high liver uptake and (2) the fast release of cytotoxic cisplatin from the liver-resided […] by hepatic GSH that led to a high concentration of cisplatin in the liver. One representative experiment out of two is shown. 30 PBS CDDP Pt IV NP sP- Cy Pt 20 10 0 013 619 25 Days Supplementary Figure 34. Monitoring of the body weight of mice with orthotopic HepG2/Luc liver tumors following indicated treatments. […] Values denote mean ± s.d. (n = 4 independent animals). 120 CDDP Pt IV NP s […] 40 0 0 25510 2015 Time (h) Supplementary Figure 35. Examination of the blood circulation half-lives of […], and CDDP. Plots of the relative amount of Pt (%) in the blood after i.v. injection of […], and CDDP (at a dose of 2.25 mg kg-1 Pt) into healthy mice. Data are mean ± s.d. (n = 3 independent animals). […] 0.23 h). […] The residues were then diluted with 5 mL 2% HNO3 and 5% HCl solution, and the concentrations of Pt element were determined by ICP-OES, which were further applied to calculate the contents of Pt element in the blood. The plot of the percentage of Pt element remained in the blood versus injection time to yield the pharmacokinetic time. Urine and Faeces analysis. […] Urine and faeces were collected at 2 (for 0-2 h), 4 (for 2-4 h), 8 (for 4- 8 h) and 12 h (for […]), which were diluted in methanol and centrifuged at 3,600 × g for 10 min, followed by filtering via a 0.22 μm syringe filter. The solutions were analyzed by HPLC (660 nm detection) to characterize all the mCy-containing compounds. Using the established standard curves for […] Cy-COOH, the amount of each compound in the urine and faeces could be calculated, which were further applied to determine the percentage of them in the urine and faeces. The data were summarized in Supplementary Tables 5-8. […] Urine and faeces were collected and weighed. The urine and faeces were digested with concentrated HNO3 (65~70%) and HCl (36~38%) at 90 °C for 24 h. The solution was diluted to 5 mL 2% HNO3 and 5% HCl solution, and the concentration of Pt element was measured by ICP-OES, which was further applied to calculate the percentage of Pt in corresponding urine and faeces. The data were summarized in Supplementary Tables 9 and 10. 47

s.c. HeLa tumors = assay: Fluorescence imaging of varying sizes of s.c. HeLa tumors; assay type: in vivo, mice; conditions: P-CyPt 100 μM, 200 μL i.v., 4 h
Description: page 21: Supplementary Figure 29. Fluorescence imaging of varying sizes of s.c. HeLa tumors in mice. (a) Representative fluorescence images of mice with s.c. HeLa tumors at a mean size of 3.8 ± 0.8, 22.1 ± 1.6, 46.4 ± 4.2, 75.9 ± 4.5 and 125.5 ± 12.7 mm3, respectively. […]) was i.v. injected into mice, and the whole-body fluorescence images were acquired at 0 and 4 h. Red arrows indicate the locations of tumors, and the black circle indicates the position chosen for the background in each mouse. (b) Calculated SBR in mice of different tumor sizes. […] Data denote mean ± s.d. (n = 3 independent animals). […] 21 (1 picture or pasted object on this page, not shown here)

[2] = HeLa, P-CyPt 10 μM 30 min then blank medium 3 h (Group II vs I)

SMILES: CC1(C)C(/C=C/C2=C3Oc4cc(OP(=O)(O)O)c(Cl)cc4C=C3CCC2)=[N+](CCCNC(=O)[C@@H](Cc2ccccc2)NC(=O)[C@@H](Cc2ccccc2)NC(=O)CCC(=O)[O][Pt]([NH2])([NH2])([OH])([Cl])[Cl])c2ccccc21 [P-CyPt]
- normalized Abs. at 700 nm (Fig. 2j) (ALP; 0 min): 0.03754
- normalized Abs. at 750 nm (Fig. 2j) (ALP; 0 min): 0.01756
- normalized FL intensity at 710 nm (Fig. 2k) (ALP; 0 min): 0.979
- normalized PA intensity at 700 nm (Fig. 2l) (ALP; 0 min): 0.1461
- normalized PA intensity at 750 nm (Fig. 2l) (ALP; 0 min): 0.1527
- normalized Abs. at 700 nm (Fig. 2j) (ALP; 5 min): 0.6947
- normalized Abs. at 750 nm (Fig. 2j) (ALP; 5 min): 0.2821
- normalized FL intensity at 710 nm (Fig. 2k) (ALP; 5 min): 5.873
- normalized PA intensity at 700 nm (Fig. 2l) (ALP; 5 min): 0.4821
- normalized PA intensity at 750 nm (Fig. 2l) (ALP; 5 min): 0.3333
- normalized Abs. at 700 nm (Fig. 2j) (ALP; 10 min): 0.8107
- normalized Abs. at 750 nm (Fig. 2j) (ALP; 10 min): 0.4361
- normalized FL intensity at 710 nm (Fig. 2k) (ALP; 10 min): 6.541
- normalized PA intensity at 700 nm (Fig. 2l) (ALP; 10 min): 0.5922
- normalized PA intensity at 750 nm (Fig. 2l) (ALP; 10 min): 0.5187
- normalized Abs. at 700 nm (Fig. 2j) (ALP; 15 min): 0.8996
- normalized Abs. at 750 nm (Fig. 2j) (ALP; 15 min): 0.6102
- normalized FL intensity at 710 nm (Fig. 2k) (ALP; 15 min): 6.902
- normalized PA intensity at 700 nm (Fig. 2l) (ALP; 15 min): 0.7009
- normalized PA intensity at 750 nm (Fig. 2l) (ALP; 15 min): 0.788
- normalized Abs. at 700 nm (Fig. 2j) (ALP; 20 min): 0.9422
- normalized Abs. at 750 nm (Fig. 2j) (ALP; 20 min): 0.6514
- normalized FL intensity at 710 nm (Fig. 2k) (ALP; 20 min): 7.672
- normalized PA intensity at 700 nm (Fig. 2l) (ALP; 20 min): 0.8542
- normalized PA intensity at 750 nm (Fig. 2l) (ALP; 20 min): 0.9373
- normalized Abs. at 700 nm (Fig. 2j) (ALP; 30 min): 0.996
- normalized Abs. at 750 nm (Fig. 2j) (ALP; 30 min): 0.688
- normalized FL intensity at 710 nm (Fig. 2k) (ALP; 30 min): 7.9669
- normalized PA intensity at 700 nm (Fig. 2l) (ALP; 30 min): 0.9524
- normalized PA intensity at 750 nm (Fig. 2l) (ALP; 30 min): 1.0015
- NIR FL at 710 nm switched on (ALP; ALP 100 U/L, after 30 min): ~ 8 fold
- increase of PA signal at 700 nm (ALP; ALP 100 U/L, after 30 min): more than sixfold
- increase of PA signal at 750 nm (ALP; ALP 100 U/L, after 30 min): more than sixfold
- normalized FL of cell pellets (Fig. 3c) (HeLa cells; Group I: HeLa, P-CyPt 10 μM): 0.6736
- normalized FL of cell pellets (Fig. 3c) (HeLa cells; Group II: HeLa, P-CyPt 10 μM, then blank medium 3 h): 1
- normalized FL of cell pellets (Fig. 3c) (HeLa cells; Group III: HeLa preincubated with Na3VO4 (10 mM, 20 min), then P-CyPt 10 μM): 0.2415
- decrease of PA signal at 750 nm in cell pellets (HeLa cells; [2]): ~ 3.5 fold
- increase of NIR FL in cell pellets (HeLa cells; [2]): ~ 1.5 fold
- Relative Pt amount in blood ([1]; Time 0 h, individual mice): 89.0517 and 110.783 and 100.165
- Relative Pt amount in blood ([1]; Time 0 h, mean of 3 mice): 100
- Relative Pt amount in blood ([1]; Time 0.5 h, individual mice): 75.3589 and 72.0355 and 86.1448
- Relative Pt amount in blood ([1]; Time 0.5 h, mean of 3 mice): 77.8464
- Relative Pt amount in blood ([1]; Time 1 h, individual mice): 48.6558 and 63.4564 and 58.4934
- Relative Pt amount in blood ([1]; Time 1 h, mean of 3 mice): 56.8685
- Relative Pt amount in blood ([1]; Time 2 h, individual mice): 21.7134 and 35.2733 and 24.195
- Relative Pt amount in blood ([1]; Time 2 h, mean of 3 mice): 27.0606
- Relative Pt amount in blood ([1]; Time 4 h, individual mice): 12.3988 and 8.818 and 6.257
- Relative Pt amount in blood ([1]; Time 4 h, mean of 3 mice): 9.158
- Relative Pt amount in blood ([1]; Time 8 h, individual mice): 7.923 and 5.247 and 4.422
- Relative Pt amount in blood ([1]; Time 8 h, mean of 3 mice): 5.864
- Relative Pt amount in blood ([1]; Time 12 h, individual mice): 4.1743 and 2.189 and 3.164
- Relative Pt amount in blood ([1]; Time 12 h, mean of 3 mice): 3.176
- Relative Pt amount in blood ([1]; Time 24 h, individual mice): 1.657 and 1.56 and 1.79
- Relative Pt amount in blood ([1]; Time 24 h, mean of 3 mice): 1.669
- blood circulation half-life t1/2 [1]: 32.4 ± 3.6 min
- size of s.c. HeLa tumors still detected by NIR FL imaging (s.c. HeLa tumors): 3.8 ± 0.8 mm^3

SMILES: [NH2][Pt]([NH2])([Cl])[Cl] [CDDP, cisplatin]
- Relative Pt amount in blood ([1]; Time 0 h, individual mice): 93.8305 and 92.1406 and 114.029
- Relative Pt amount in blood ([1]; Time 0 h, mean of 3 mice): 100
- Relative Pt amount in blood ([1]; Time 0.5 h, individual mice): 57.2961 and 52.6288 and 39.5118
- Relative Pt amount in blood ([1]; Time 0.5 h, mean of 3 mice): 49.8122
- Relative Pt amount in blood ([1]; Time 1 h, individual mice): 22.492 and 12.6341 and 19.9651
- Relative Pt amount in blood ([1]; Time 1 h, mean of 3 mice): 18.3637
- Relative Pt amount in blood ([1]; Time 2 h, individual mice): 7.725 and 8.771 and 6.76
- Relative Pt amount in blood ([1]; Time 2 h, mean of 3 mice): 7.752
- Relative Pt amount in blood ([1]; Time 4 h, individual mice): 2.808 and 1.569 and 2.181
- Relative Pt amount in blood ([1]; Time 4 h, mean of 3 mice): 2.186
- Relative Pt amount in blood ([1]; Time 8 h, individual mice): 1.408 and 0.5955 and 1.521
- Relative Pt amount in blood ([1]; Time 8 h, mean of 3 mice): 1.175
- Relative Pt amount in blood ([1]; Time 12 h, individual mice): 1.746 and 1.28 and 0.8611
- Relative Pt amount in blood ([1]; Time 12 h, mean of 3 mice): 1.2956
- Relative Pt amount in blood ([1]; Time 24 h, individual mice): 1.634 and 0.8852 and 0.6518
- Relative Pt amount in blood ([1]; Time 24 h, mean of 3 mice): 1.057
- blood circulation half-life t1/2 [1]: 43.8 ± 2.4 min
